Laboratory results from PubChem BioAssay AID1963846 (Molecular Pharmacology Branch, DTP, NCI, 2024).

System: 454973-116-R2-J3-PDC complex spheroid viability
Assay: Anticancer human tumor 454973-116-R2-J3-PDC patient-derived pancreatic carcinoma cell line growth inhibition [POLQ]
Conditions: for IC50: curve of first compound; for viability, T/C: stronger effect = lower value; active = viability on the fitted dose curve at most 10% of control; inactive = the rest
Outline: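 PDC + HUVEC + MSC complex spheroids; POLQ inhibitors ± partner drugs; top conc. at/near clinical Cmax, else 10 microM (SN-38 1 microM), half-log dilutions; 37 degrees C, 5% CO2.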

[1] = second compound 0.0316 µM, first compound 0.0316 µM
[2] = second compound 0.0316 µM, first compound 0.1 µM
[3] = second compound 0.0316 µM, first compound 0.316 µM
[4] = second compound 0.0316 µM, first compound 1 µM
[5] = second compound 0.0316 µM, first compound 3.16 µM
[6] = second compound 0.0316 µM, first compound 10 µM
[7] = second compound 0.1 µM, first compound 0.0316 µM
[8] = second compound 0.1 µM, first compound 0.1 µM
[9] = second compound 0.1 µM, first compound 0.316 µM
[10] = second compound 0.1 µM, first compound 1 µM
[11] = second compound 0.1 µM, first compound 3.16 µM
[12] = second compound 0.1 µM, first compound 10 µM
[13] = second compound 0.316 µM, first compound 0.0316 µM
[14] = second compound 0.316 µM, first compound 0.1 µM
[15] = second compound 0.316 µM, first compound 0.316 µM
[16] = second compound 0.316 µM, first compound 1 µM
[17] = second compound 0.316 µM, first compound 3.16 µM
[18] = second compound 0.316 µM, first compound 10 µM
[19] = second compound 1 µM, first compound 0.0316 µM
[20] = second compound 1 µM, first compound 0.1 µM
[21] = second compound 1 µM, first compound 0.316 µM
[22] = second compound 1 µM, first compound 1 µM
[23] = second compound 1 µM, first compound 3.16 µM
[24] = second compound 1 µM, first compound 10 µM
[25] = second compound 3.16 µM, first compound 0.0316 µM
[26] = second compound 3.16 µM, first compound 0.1 µM
[27] = second compound 3.16 µM, first compound 0.316 µM
[28] = second compound 3.16 µM, first compound 1 µM
[29] = second compound 3.16 µM, first compound 3.16 µM
[30] = second compound 3.16 µM, first compound 10 µM
[31] = second compound 10 µM, first compound 0.0316 µM
[32] = second compound 10 µM, first compound 0.1 µM
[33] = second compound 10 µM, first compound 0.316 µM
[34] = second compound 10 µM, first compound 1 µM
[35] = second compound 10 µM, first compound 3.16 µM
[36] = second compound 10 µM, first compound 10 µM
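Also: spheroids exposed to drugs for seven days before measurement.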
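For viability, T/C in this document: percent viability relative to DMSO vehicle control wells taken as 100%.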

CCc1cc2c(N3CCc4c(cc(Cn5ccnc5)cc4-c4cn(C)nc4C(F)(F)F)C3=O)cc(C)nc2c(OC)n1 + Cc1cccc(N(C)C(=O)C2C(O)CCN2c2nc(C)cc(C(F)(F)F)c2C#N)c1
> 10 µM: IC50 (second compound 0.0316 µM) | IC50 (second compound 0.1 µM) | IC50 (second compound 0.316 µM) | IC50 (second compound 1 µM) | IC50 (second compound 3.16 µM) | IC50 (second compound 10 µM)
inactive: viability, T/C [1] 94.7% | viability, T/C [2] 84.6% | viability, T/C [3] 87.3% | viability, T/C [4] 75.5% | viability, T/C [5] 76.5% | viability, T/C [6] 56.9% | viability, T/C [7] 92.7% | viability, T/C [8] 99.2% | viability, T/C [9] 80.7% | viability, T/C [10] 80.1% | viability, T/C [11] 74.6% | viability, T/C [12] 60.8% | viability, T/C [13] 93.6% | viability, T/C [14] 84.5% | viability, T/C [15] 87.7% | viability, T/C [16] 76.9% | viability, T/C [17] 76.3% | viability, T/C [18] 61.6% | viability, T/C [19] 100% | viability, T/C [20] 94% | viability, T/C [21] 78.4% | viability, T/C [22] 73.6% | viability, T/C [23] 70.4% | viability, T/C [24] 58.6% | viability, T/C [25] 104% | viability, T/C [26] 89.3% | viability, T/C [27] 84.1% | viability, T/C [28] 74.7% | viability, T/C [29] 74.4% | viability, T/C [30] 63.8% | viability, T/C [31] 88.5% | viability, T/C [32] 90.2% | viability, T/C [33] 74.9% | viability, T/C [34] 71.5% | viability, T/C [35] 64.9% | viability, T/C [36] 53.2%

CC1COCCN1c1cc(C2(S(C)(=N)=O)CC2)nc(-c2ccnc3[nH]ccc23)n1 (stereo unspecified) + COC1C(OC(N)=O)C(O)C(Oc2ccc3c(O)c(NC(=O)c4ccc(O)c(CC=C(C)C)c4)c(=O)oc3c2C)OC1(C)C
inactive: viability, T/C [1] 102% | viability, T/C [2] 104% | viability, T/C [3] 105% | viability, T/C [4] 102% | viability, T/C [5] 77.1% | viability, T/C [6] 28.1% | viability, T/C [7] 107% | viability, T/C [8] 114% | viability, T/C [9] 101% | viability, T/C [10] 101% | viability, T/C [11] 71.8% | viability, T/C [12] 32.8% | viability, T/C [13] 103% | viability, T/C [14] 110% | viability, T/C [15] 116% | viability, T/C [16] 105% | viability, T/C [17] 81.1% | viability, T/C [18] 38.3% | viability, T/C [19] 127% | viability, T/C [20] 104% | viability, T/C [21] 109% | viability, T/C [22] 109% | viability, T/C [23] 68.2% | viability, T/C [24] 37% | viability, T/C [25] 118% | viability, T/C [26] 99.9% | viability, T/C [27] 101% | viability, T/C [28] 97.2% | viability, T/C [29] 75.8% | viability, T/C [30] 30.9% | viability, T/C [31] 114% | viability, T/C [32] 97% | viability, T/C [33] 104% | viability, T/C [34] 93.9% | viability, T/C [35] 74% | viability, T/C [36] 31.2%
6.04 µM: IC50 (second compound 0.1 µM)
7.3 µM: IC50 (second compound 0.316 µM)
6.05 µM: IC50 (second compound 10 µM)
5.99 µM: IC50 (second compound 0.0316 µM)
6.15 µM: IC50 (second compound 3.16 µM)
6.19 µM: IC50 (second compound 1 µM)

COc1ccc([C@@H](O)c2cc(-c3ncnc4cc(N5CCOCC5)ccc34)c(F)cc2Cl)nn1 + Nc1ccc(C#CCN(C(=O)Cc2ncc(C(F)(F)F)cc2C(F)(F)F)c2ccc(F)cc2)nn1
inactive: viability, T/C [1] 107% | viability, T/C [2] 107% | viability, T/C [3] 96.9% | viability, T/C [4] 86.9% | viability, T/C [5] 66.3% | viability, T/C [6] 53.5% | viability, T/C [7] 106% | viability, T/C [8] 96.1% | viability, T/C [9] 108% | viability, T/C [10] 90.3% | viability, T/C [11] 69.2% | viability, T/C [12] 49.8% | viability, T/C [13] 107% | viability, T/C [14] 107% | viability, T/C [15] 102% | viability, T/C [16] 85.8% | viability, T/C [17] 73.9% | viability, T/C [18] 52.4% | viability, T/C [19] 107% | viability, T/C [20] 106% | viability, T/C [21] 104% | viability, T/C [22] 92.3% | viability, T/C [23] 79.4% | viability, T/C [24] 59.9% | viability, T/C [25] 102% | viability, T/C [26] 107% | viability, T/C [27] 116% | viability, T/C [28] 93.9% | viability, T/C [29] 68.5% | viability, T/C [30] 56.5% | viability, T/C [31] 120% | viability, T/C [32] 119% | viability, T/C [33] 118% | viability, T/C [34] 93.7% | viability, T/C [35] 80.3% | viability, T/C [36] 64.4%
> 10 µM: IC50 (second compound 0.0316 µM) | IC50 (second compound 0.1 µM) | IC50 (second compound 0.316 µM) | IC50 (second compound 1 µM) | IC50 (second compound 3.16 µM) | IC50 (second compound 10 µM)
